Results taken from the NIST ThermoML archive (doi:10.1016/j.jct.2017.07.009).

Conditions: 1410 K; Crystal; Calculated from knudsen effusion weight loss

vapor or sublimation pressure: 0.00842 kPa
SMILES: [O-2].[Zn+2] [zinc(II) oxide]
